Laboratory results from patent US10172911B2, “Methods of modulating erythropoiesis with arginine vasopressin receptor 1B molecules” (The United States of America, as represented by the …, priority 2013, dated 2019).
“Also recorded” adds a separate entry of the source.

Columns and labels:
[1] = test system: CD34^+ cells from healthy donors; assay: CFU assay (E-CFU, GM-CFU) of human CD34+ cells in Methocult; type: cell-based; conditions: for effect of pathway inhibitor on CFU increase elicited by AVP: 10^−8 M AVP; for effect of pathway inhibitor on CFU increase elicited by AVPR1B agonist: 10^−8 M AVPR1B agonist; for effect of pathway inhibitor on GM-CFU increase induced by OXT: 10^−8 M OXT
Procedure: CD34^+ cells from healthy donors were plated into semi-solid methylcellulose medium (Methocult) containing hematopoietic factors (GM-CSF 5 ng/ml, IL-3 5 ng/ml, SCF 50 ng/ml, EPO 2.5 U/ml).
The number of erythroid colony forming units (E-CFU) and granulocyte-macrophage colony forming units (GM-CFU) were determined based on morphological criteria on 7th and 14th days in culture.

[2] = test system: human CD34+ hematopoietic progenitors; assay: Intracellular Ca2+ measurement in Fura-2 loaded human CD34+ hematopoietic progenitors; type: cell-based; conditions: human CD34+ cells; for intracellular calcium levels: agonist stimulation
Procedure: Human BMSCs were loaded with Fura-2 and the cells were stimulated with AVP, or OXT. Intracellular Ca^2+ concentration was assayed as described before (Ely, J. A. et al. J Biol Chem 266, 18635-18641 (1991). To study their response to AVP and specific AVP receptor agonists and antagonists human CD34+ hematopoietic progenitors were Fura-2 loaded and Cytoplasmic Ca2+ measurements were performed in cells kept in suspension using a fluorescence spectrophotometer (Deltascan, Photon Technology International). Ratiometric measurements were recorded at 340/380 nm excitation and 500 nm emission and the ratios were plotted against time. Ionomycin (10 μM) was added at the end of each run to determine the maximum fluorescence ratio.

human CD34^+ cells = assay: BrdU cell proliferation assay, human CD34+ cells; type: cell-based
Procedure: (§1) Sorted mouse bone marrow LSK cells (10000 cells/well) were plated in a 96 well plate in Stemspan serum free expansion medium ([…] Technologies, Vancouver, Canada) with Pen/Strep, and the following hematopoietic factors: 100 ng/ml TPO, 50 ng/ml FLT3L, 50 ng/ml IL-3 and SCF 100 ng/ml (Peprotech, Rocky Hill, N.J.). Cells were treated with […] (Sigma-Aldrich, St. Louis, Mo.). When using human CD34^+ cells (5000 cells/well), human SCF, TPO, FLT3L and G-CSF (Peprotech, each at 50-100 ng/ml) were added to the Stemspan medium. Cells were treated with 10^−8M-10^−14M AVP. After 24 hours, BrdU at a 1:1000 concentration was added to the cultures and incorporation of BrdU was measured using the Cell Proliferation ELISA BrdU kit (Roche, Mannheim, Germany) after another 24 hours of incubation.

Human BMSCs = assay: BMSC signalling (ERK phosphorylation, cAMP, intracellular Ca2+); type: cell-based; conditions: BMSC cultures
Procedure: For cAMP quantitation, 8×10^5 per well human BMSCs were plated in 6 well plates and left to attach overnight. Next day, the medium was changed and the cells were stimulated with AVP or deamino-Cys^1, D-Arg^8 AVP (DDAVP, a V2 receptor agonist) at 10^−6 M for 4 minutes. Cells were washed with PBS and lysed with R&D cell lysis buffer. Cyclic AMP was measured with the R&D cAMP Parameter assay kit (R&D Systems, Minneapolis, Minn.) according to manufacturer's instructions. Total protein concentrations of the cell lysates were measured using the Micro BCA Protein Assay kit (Pierce, Rockford, Ill.) and cAMP amount was normalized to 100 μg of total protein.

[3] = test system: mouse bone marrow LSK cells; assay: BrdU cell proliferation assay, sorted mouse bone marrow LSK cells; type: cell-based; conditions: 10^−8M-10^−14M, 2 days culture
Procedure: as §1

C57BL6 male mice = assay: Hemorrhage anemia model, Alzet pump delivery; type: in vivo, mouse; conditions: hemorrhage, FIG. 9D
Procedure: Mice were anesthetized with isoflurane. Twenty five percent of their calculated circulating blood volume (calculated based on Animal Research Advisory Committee Guidelines for survival bleeding of mice and rats, OACU, NIH) was drained from the retro-orbital plexus.
The reticulocyte ratio of peripheral blood was determined using the Retic-Count flow kit (BD Biosciences) according to the manufacturer's instructions. Hematocrit values were measured with an automated analyzer and microhematocrit tubes. The reticulocyte index was calculated as follows: reticulocyte ratio %/total gated cells×hematocrit/45.
To infuse vasopressin into the mice, AVP filled ALZET pumps were implanted subcutaneously on the dorsal aspect of the neck (5 ug/day, Alzet 1007D—7 days, 2002-14 days). Vasopressin was also given immediately and 6 hours later as a bolus injection (100 μg/kg). Alzet pumps were inserted subcutaneously. The dimensions and pump specification are: ALZET, (DURECT Corporation, Cupertino, Calif., USA) mini-osmotic pump models 1007D or 2002. The pumps deliver 0.5 μl/h of the desired substance for a for 2-week period. In some cases, erythropoietin antibody (100 μg/mice) was given before anesthesia with the corresponding control antibody. […] Following the initial hemorrhage blood samples were taken at 2, 4 and in some cases 6 days later to determine hematocrit and corrected reticulocyte values.

[4] = per 1000 plated CD34+ cells, 10^−8 M

Molecule: 1L-6-hydroxymethyl-chiro-inositol 2-(R)-2-O-methyl-3-O-octadecylcarbonate [HIMO]
- effect of pathway inhibitor on CFU increase elicited by AVP ([1]; Dkk1 200 ng/ml, HIMO 10^−8 M): had no effect
- effect of pathway inhibitor on CFU increase elicited by AVPR1B agonist ([1]; Dkk1 200 ng/ml, HIMO 10^−8 M): had no effect
- effect of pathway inhibitor on GM-CFU increase induced by OXT ([1]; Dkk1 200 ng/ml, HIMO 10^−8 M): did block
- GM-CFU numbers, inhibitor on its own ([1]; Dkk1 200 ng/ml, HIMO 10^−8 M): Neither Dkk1 nor HIMO affected GM-CFU numbers on their own

Molecule: COc1ccc(S(=O)(=O)N2C(=O)[C@@](c3ccccc3OC)(N3C[C@H](O)C[C@H]3C(=O)N(C)C)c3cc(Cl)ccc32)c(OC)c1 [AVPR1B antagonist, SSR 149415 - Nelivaptan]
- block of the AVP-induced increase in calcium ([2]; antagonist): could be blocked
- block of AVP / AVPR1B agonist induced proliferation of human HSPCs (human CD34^+ cells; antagonist): blocked; also recorded: both effects were seen

Molecule: NC(=O)CC[C@@H]1NC(=O)[C@H](Cc2ccccc2)NC(=O)[C@H](Cc2ccc(O)cc2)NC(=O)CCSSC[C@@H](C(=O)N2CCC[C@H]2C(=O)N[C@H](CCCN=C(N)N)C(=O)NCC(N)=O)NC(=O)[C@H](CC(N)=O)NC1=O [AVPR2 agonist, deamino-Cys^1, D-Arg^8 AVP]
- cyclic AMP (Human BMSCs; 10^−6 M for 4 minutes): increase in cyclic AMP

Molecule: CC[C@H](C)[C@@H]1NC(=O)[C@H](Cc2ccc(O)cc2)NC(=O)[C@@H](N)CSSC[C@@H](C(=O)N2CCC[C@H]2C(=O)N[C@@H](CC(C)C)C(=O)NCC(N)=O)NC(=O)[C@H](CC(N)=O)NC(=O)[C@H](CCC(N)=O)NC1=O [OXT, oxytocin]
- ERK phosphorylation (Human BMSCs): induced ERK phosphorylation
- intracellular calcium (Human BMSCs): increase in intracellular Ca^2+ concentrations
- granulocyte macrophage-colony forming unit (GM-CFU) numbers [1, 4]: increased only GM-CFU numbers
- proliferation (BrdU) of human CD34+ cells / HSPCs (human CD34^+ cells): responded to AVP and OXT in much the same way as mouse LSK cells did
- proliferation (BrdU incorporation) of mouse LSK cells [3]: induced proliferation; also recorded: stimulated LSK proliferation

Molecule: NC[C@H](O)c1ccc(O)c(O)c1 [noradrenaline]
- erythroid-colony forming unit (E-CFU) numbers [1, 4]: significantly increased

Molecule: [Phe2, Ile3, Orn8] Vasopressin [AVPR1A agonist]
- intracellular calcium levels [2]: did not respond

Molecule: dCha^4AVP
- colony formation ([1]; 10^−8M): stimulated colony formation
- intracellular calcium levels [2]: increased intra-cellular Ca^2+ concentrations

Molecule: d[Leu4, Lys8]-VP [dLeu^4Lys^8-VP]
- recovery times (C57BL6 male mice): significantly improved recovery times

Molecule: desGlyAVP
- proliferation (BrdU incorporation) of mouse LSK cells [3]: did not

B1: Dkk1: dickkopf related protein 1, Wnt pathway inhibitor (protein, UniProt O94907 32-266, looked up)
Dickkopf-related protein 1: TLNSVLNSNAIKNLPPPLGGAAGHPGSAVSAAPGILYPGGNKYQTIDNYQPYPCAEDEECGTDEYCASPTRGGDAGVQICLACRKRRKRCMRHAMCCPGNYCKNGICVSSDQNHFRGEIEETITESFGNDHSTLDGYSRRTTLSSKMYHTKGQEGSVCLRSSDCASGLCCARHFWSKICKPVLKEGQVCTKHRRKGSHGLEIFQRCYCGEGLSCRIQKDHHQASNSSRLHTCQRH
- effect of pathway inhibitor on CFU increase elicited by AVP ([1]; Dkk1 200 ng/ml, HIMO 10^−8 M): blocked the increase in GM-CFU numbers
- effect of pathway inhibitor on CFU increase elicited by AVP ([1]; Dkk1 200 ng/ml, HIMO 10^−8 M, listed as DKK-1): did block
- effect of pathway inhibitor on CFU increase elicited by AVPR1B agonist ([1]; Dkk1 200 ng/ml, HIMO 10^−8 M): blocked the increase in GM-CFU numbers
- effect of pathway inhibitor on GM-CFU increase induced by OXT ([1]; Dkk1 200 ng/ml, HIMO 10^−8 M): did not alter
